The test system of one assay is OPM-2 cells. The assay is described as follows: Cell viability assay (CellTiter-Glo), OPM-2. The class given is cell-based. To be noted: Homo sapiens, 24 hours incubation, 1% FBS, read-out: Average pIC50 by molecule OPM-2 (converted). The source says:
The effect of various compounds of the invention on the viability of OPM-2, MV-4-11 and ARH-77 cell lines was investigated, using the CTG protocol described below.
OPM-2 and MV-4-11 cell lines are derived from multiple myeloma and acute myeloid leukaemia, respectively. Both cell lines are described in the literature as MCL-1 dependent lines, as opposed to lymphoblast-like ARH-77 cell line, which is described as independent of MCL-1 (Tron A E et al. Nat Commun. 2018; 9: 5341; Caenepeel S et al. Cancer Discov. 2018 December; 8(12):1582-1597).
Cells (OPM-2, MV-4-11 or ARH-77) were seeded on […] in a growth medium with FBS reduced to 1%. Next, compound stocks were pre-diluted in DMSO and added directly to the cells growth medium (final DMSO concentration: 0.5%). Compound concentrations used in this assay: 1/3 dilutions starting at 30 uM (9 to 12 points).
After 24 hours of incubation, cell viability was evaluated using CellTiter-Glo Luminescent Cell Viability Assay (Promega, cat #G7572). Luminescence signal was measured using a CLARIOstar Plus Multi-Mode Microplate Reader (574-590 nm).
Results were normalized to DMSO control.
A general note: In ATP-based viability assays light output follows the ATP content of the culture.

The next assay has as its target MCL-1 protein (Homo sapiens, UniProt Q07820). The assay is described as follows: OPM-2 cells: MCL-1 protein degradation, Simple Western. Further details: endogenous in cells; host or cells: OPM-2. The settings on record: OPM-2 cell line, 6 h treatment, 100 nM compound, vs DMSO. Type of assay: cell-based. The procedure, abridged:
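OPM-2 cells in RPMI-1640 with 1% FBS treated with compounds (0.5% DMSO) for 6 h at 100 nM. Lysates analysed by automated capillary Simple Western with MCL-1 D35A5 antibody; % MCL-1 reduction versus DMSO-treated cells (0%).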

Assay [1] addresses [MCL-1]-[compound of formula (I)]-[CRBN/DDB1] complex (Homo sapiens, UniProt Q07820+Q96SW2). The assay is described as follows: HTRF ternary complex assay. The class given is binding. To be noted: ternary complex formation; read-out: HTRF ternary complex Average pEC50 by molecule (converted). In a few lines:
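hMcl-1 and CRBN (mix at 48 nM and 105.6 nM) with Streptavidin-Eu cryptate and anti-6×His-d2 in PPI Europium buffer with 2 mM DTT; compounds in dose-response, 0.5% DMSO. Incubated 180 min at 25° C, TR-FRET 665/620 read. Bell-shaped curve fitted by Gaussian; EC50 reported.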
(In general: In TR-FRET formats the signal depends on donor and acceptor labels being close together.)

For a further assay, the system named is ARH-77 cells. The assay is described as follows: Cell viability assay (CellTiter-Glo), ARH-77. The class given is cell-based. The settings on record: Homo sapiens, ARH-77, 24 hours incubation, 1% FBS, read-out: Average pIC50 by molecule ARH-77 (converted). In a few lines: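 Luminescent ATP readout (CellTiter-Glo) at 24 hours measured viability, expressed relative to DMSO-treated wells. Compound was added directly to the medium as a 9–12-point threefold series starting at 30 uM, at 0.5% final DMSO. The medium contained FBS reduced to 1%.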

Another assay has as its system DMS 114 cells. The assay can be described thus: Cell viability assay (CellTiter-Glo), DMS 114. Type of assay: cell-based. To be noted: 72 hours incubation, 10% FBS. The source says:
The effect of various compounds of the invention on the viability of DMS 114 cell line was investigated, using the CTG protocol described below.
DMS 114 cell line is derived from small-cell lung cancer, which is described in the literature as MCL-1 dependent lines [Yasuda Y et al. Cell Death & Disease 2020; 11: 177].
DMS 114 cells were detached with trypsin and then resuspended in growth medium containing 10% FBS and counted. Cell suspension was then adjusted to 5×10^4 cells/ml using growth medium containing 10% FBS. Afterwards, […] were seeded on 384-well plates (50 μl). Plates were then placed in the incubator overnight until treated. Next day, compounds were added using ECHO 555 liquid handler. Compound concentrations used in this assay: 1/3 dilutions starting at 30 uM (9 to 12 points).
After 72 hours of incubation, cell viability was evaluated using CellTiter-Glo Luminescent Cell Viability Assay (Promega, cat #G7572). Luminescence signal was measured using a CLARIOstar Plus Multi-Mode Microplate Reader (574-590 nm).

Molecules are shown by their SMILES.

This note sets out measurements from patent US20240294499A1, “TARGETED PROTEIN DEGRADATION USING BIFUNCTIONAL COMPOUNDS THAT BIND UBIQUITIN LIGASE AND TARGET MCL-1 PROTEIN” (Captor Therapeutics S.A., priority 2021, published 2024).

[MCL-1]-[compound of formula (I)]-[CRBN/DDB1] complex, sequence (Q07820 whole entry): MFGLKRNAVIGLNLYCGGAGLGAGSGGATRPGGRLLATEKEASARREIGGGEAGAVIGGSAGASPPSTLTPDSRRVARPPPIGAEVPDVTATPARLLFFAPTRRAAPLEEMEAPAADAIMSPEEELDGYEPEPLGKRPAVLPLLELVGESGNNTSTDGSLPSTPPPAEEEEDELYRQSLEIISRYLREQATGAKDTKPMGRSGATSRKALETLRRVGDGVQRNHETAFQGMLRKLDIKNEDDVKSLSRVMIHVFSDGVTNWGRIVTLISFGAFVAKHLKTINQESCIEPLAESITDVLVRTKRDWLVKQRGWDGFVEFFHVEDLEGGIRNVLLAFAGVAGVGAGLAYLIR
[MCL-1]-[compound of formula (I)]-[CRBN/DDB1] complex, sequence (Q96SW2 whole entry): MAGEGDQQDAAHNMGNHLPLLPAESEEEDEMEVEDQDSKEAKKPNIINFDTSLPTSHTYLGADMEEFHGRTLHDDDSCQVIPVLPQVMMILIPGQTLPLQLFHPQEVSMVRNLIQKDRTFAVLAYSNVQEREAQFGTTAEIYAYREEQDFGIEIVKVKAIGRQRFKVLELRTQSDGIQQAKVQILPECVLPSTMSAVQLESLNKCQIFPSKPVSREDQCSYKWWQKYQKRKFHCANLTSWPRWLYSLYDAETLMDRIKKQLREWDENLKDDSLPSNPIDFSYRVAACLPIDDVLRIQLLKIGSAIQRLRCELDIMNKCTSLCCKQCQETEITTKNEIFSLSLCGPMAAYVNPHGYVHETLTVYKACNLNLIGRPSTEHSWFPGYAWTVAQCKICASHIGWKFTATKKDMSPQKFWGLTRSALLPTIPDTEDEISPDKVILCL
[MCL-1]-[compound of formula (I)]-[CRBN/DDB1] complex, sequence (Q16531 whole entry partner): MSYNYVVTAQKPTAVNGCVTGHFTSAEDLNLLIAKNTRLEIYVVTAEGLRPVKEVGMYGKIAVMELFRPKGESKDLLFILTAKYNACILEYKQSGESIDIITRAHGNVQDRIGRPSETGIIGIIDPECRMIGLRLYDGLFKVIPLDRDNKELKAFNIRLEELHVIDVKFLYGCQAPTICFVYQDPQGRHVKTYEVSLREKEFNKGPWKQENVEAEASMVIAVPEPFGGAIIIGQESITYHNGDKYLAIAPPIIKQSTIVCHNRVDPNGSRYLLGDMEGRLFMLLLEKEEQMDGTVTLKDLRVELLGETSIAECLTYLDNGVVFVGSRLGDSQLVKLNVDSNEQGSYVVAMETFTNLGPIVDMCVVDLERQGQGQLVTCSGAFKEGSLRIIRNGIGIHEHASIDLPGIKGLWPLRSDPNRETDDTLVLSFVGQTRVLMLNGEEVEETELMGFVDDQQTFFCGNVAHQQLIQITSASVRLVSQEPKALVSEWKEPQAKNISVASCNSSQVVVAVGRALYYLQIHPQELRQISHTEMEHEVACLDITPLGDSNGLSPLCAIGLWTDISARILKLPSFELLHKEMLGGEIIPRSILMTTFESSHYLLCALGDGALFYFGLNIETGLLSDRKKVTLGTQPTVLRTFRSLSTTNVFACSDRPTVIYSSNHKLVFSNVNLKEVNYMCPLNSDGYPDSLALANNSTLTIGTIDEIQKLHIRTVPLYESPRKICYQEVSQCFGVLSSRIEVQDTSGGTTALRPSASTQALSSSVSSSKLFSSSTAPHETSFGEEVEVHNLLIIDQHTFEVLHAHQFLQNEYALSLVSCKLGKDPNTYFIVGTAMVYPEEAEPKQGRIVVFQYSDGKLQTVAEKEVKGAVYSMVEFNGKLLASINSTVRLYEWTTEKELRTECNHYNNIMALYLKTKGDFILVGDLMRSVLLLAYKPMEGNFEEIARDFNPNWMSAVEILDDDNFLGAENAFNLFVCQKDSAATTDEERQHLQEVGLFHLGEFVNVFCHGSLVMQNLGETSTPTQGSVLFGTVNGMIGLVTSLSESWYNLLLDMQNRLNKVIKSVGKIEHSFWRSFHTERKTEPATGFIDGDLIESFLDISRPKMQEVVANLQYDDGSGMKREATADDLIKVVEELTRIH
MCL-1 protein, sequence (Q07820 whole entry): as the sequence (Q07820 whole entry) above

In the case of `Cc1nn(C)c(C)c1-c1c(F)ccc2c(CCCOc3cccc4cc(F)ccc34)c(C(=O)O)n(CCN3CCN(C(=O)COc4cccc5c4C(=O)N(C4CCC(=O)NC4=O)C5=O)CC3)c12` (stereo not shown) [Compound 215, 1-{2-[4-(2-{[2-(2,6-dioxopiperidin-3-yl)-1,3-dioxo-2,3-dihydro-1H-isoindol-4-yl]oxy}acetyl)piperazin-1-yl]ethyl}-6-fluoro-3-{3-[(6-fluoronaphthalen-1-yl)oxy]propyl}-7-(1,3,5-trimethyl-1H-pyrazol-4-yl)-1H-indole-2-carboxylic acid], in the assay on OPM-2 cells, the IC50 is no more than 1000 nM. Moreover, at MCL-1 protein, the “Simple Western, % of protein reduction” value is no less than 20%.

In the case of `Cc1nn(C)c(C)c1-c1c(Cl)ccc2c(CCCOc3cccc4cc(F)ccc34)c(C(=O)O)n(CCN3CCN(C(=O)Cn4c(C)nc5c(C(=O)NC6CCC(=O)NC6=O)cccc54)CC3)c12` (stereo not shown) [Compound 268, 6-chloro-1-{2-[4-(2-{4-[(2,6-dioxopiperidin-3-yl)carbamoyl]-2-methyl-1H-1,3-benzodiazol-1-yl}acetyl)piperazin-1-yl]ethyl}-3-{3-[(6-fluoronaphthalen-1-yl)oxy]propyl}-7-(1,3,5-trimethyl-1H-pyrazol-4-yl)-1H-indole-2-carboxylic acid], the EC50 in assay [1] is less than 10 nM.

As to `Cc1nn2c(c1-c1c(Cl)ccc3c(CCCOc4cccc5cc(F)ccc45)c(C(=O)O)n(CCN4CCN(C(=O)COc5cccc6c5CN(C5CCC(=O)NC5=O)C6=O)CC4)c13)COCC2` (stereo not shown) [Compound 346, 6-Chloro-1-(2-(4-(2-((2-(2,6-dioxopiperidin-3-yl)-1-oxoisoindolin-4-yl)oxy)acetyl)piperazin-1-yl)ethyl)-3-(3-((6-fluoronaphthalen-1-yl)oxy)propyl)-7-(2-methyl-6,7-dihydro-4H-pyrazolo[5,1-c][1,4]oxazin-3-yl)-1H-indole-2-carboxylic acid], the IC50 in the assay with ARH-77 cells was greater than 10000 nM; in the assay with DMS 114 cells (Homo sapiens, DMS-114, 72 h, read-out: Average pIC50 by molecule DMS 114 (converted)) it was no more than 3160 nM.

`Cc1nn(C)c(C)c1-c1c(Cl)ccc2c(CCCOc3cccc4ccccc34)c(C(=O)O)n(CCN3CCN(C(=O)COc4cccc5c4C(=O)N(C4CCC(=O)NC4=O)C5=O)CC3)c12` (stereo not shown) [Compound 204, 6-chloro-1-(2-(4-(2-((2-(2,6-dioxopiperidin-3-yl)-1,3-dioxoisoindolin-4-yl)oxy)acetyl)piperazin-1-yl)ethyl)-3-(3-(naphthalen-1-yloxy)propyl)-7-(1,3,5-trimethyl-1H-pyrazol-4-yl)-1H-indole-2-carboxylic acid]: the IC50 in the assay on OPM-2 cells was no more than 1000 nM. For the same compound, the “Simple Western, % of protein reduction” value on MCL-1 protein is no less than 40%.

As to `Cc1nn(C)c(C)c1-c1c(Cl)ccc2c(CCCOc3cccc4cc(F)ccc34)c(C(=O)O)n(CCN3CCN(C(=O)COc4cccc5c4CN(C4CCC(=O)NC4=O)C5=O)CC3)c12` (stereo not shown) [Compound 220, 6-chloro-1-{2-[4-(2-{[2-(2,6-dioxopiperidin-3-yl)-1-oxo-2,3-dihydro-1H-isoindol-4-yl]oxy}acetyl)piperazin-1-yl]ethyl}-3-{3-[(6-fluoronaphthalen-1-yl)oxy]propyl}-7-(1,3,5-trimethyl-1H-pyrazol-4-yl)-1H-indole-2-carboxylic acid], the EC50 in assay [1] was less than 100 nM. Besides, the IC50 in the assay with ARH-77 cells is greater than 10000 nM. For the same compound, the “Average pIC50 by molecule DMS 114” value with DMS 114 cells is no less than 6.5.
